Consider seven compounds from PubChem BioAssay (NCI).

Among the test systems are A498 renal; DU-145 prostate; EKVX NSCLC; MCF7 breast; MOLT-4 leukemia; NCI-H522 lung; OVCAR-4 ovarian; RPMI-8226 leukemia; SK-MEL-28 melanoma; SNB-19 CNS.
Assay in all cases: growth of human tumour cells (NCI), 48 h

The structures appear in SMILES notation. “And” between values parts separate entries of the source, which are not always exact repeats. Equal values may be shown once.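 1) Cells in 96-well plates. 2) Compound, 48 h, 5 concentrations. 3) Linear interpolation between surrounding doses. 4) Unreached endpoint = highest concentration. GI50 marks 50% less growth. TGI marks complete inhibition of growth.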

As to `COc1ccc(C2CC(c3ccc4ccccc4c3)=NN2c2nc(O)c(C3=c4cc(Cl)ccc4=NC3=O)s2)cc1` (configuration not stated), the GI50 with A498 renal is 16.6 nM and < 5 nM; with DU-145 prostate it was 33.1 nM and < 5 nM; in the assay on EKVX NSCLC it was 31.3 nM and < 5 nM; with MCF7 breast it was 29.2 nM and < 5 nM; in the assay on MOLT-4 leukemia, 32.9 nM and < 5 nM; in the assay with NCI-H522 lung it was 18.3 nM and < 5 nM. For the same compound, the GI50 with OVCAR-4 ovarian was 21.5 nM; in the assay on RPMI-8226 leukemia, 64.1 nM; with SK-MEL-28 melanoma, 25.8 nM and < 5 nM; in the assay with SNB-19 CNS, 34 nM and < 5 nM. In addition, the TGI in the assay on A498 renal was 41.9 nM and < 5 nM; in the assay on DU-145 prostate, 147 nM and 200 nM; in the assay on NCI-H522 lung, 40.2 nM and < 5 nM; with OVCAR-4 ovarian, 48.7 nM; in the assay with SNB-19 CNS, 1180 nM.
As for `CCc1c2c(nc3ccc(OC(=O)OCc4ccc(B5OC(C)(C)C(C)(C)O5)cc4)cc13)-c1cc3c(c(=O)n1C2)COC(=O)[C@]3(O)CC`, the GI50 in the assay with A498 renal is 11 nM; in the assay with DU-145 prostate, less than 10 nM; in the assay on EKVX NSCLC, 345 nM; in the assay with MCF7 breast, less than 10 nM; in the assay on MOLT-4 leukemia it was less than 10 nM; in the assay with NCI-H522 lung, 19.6 nM. Moreover, the GI50 is 210 nM in the assay on OVCAR-4 ovarian, 224 nM in the assay with RPMI-8226 leukemia, 262 nM with SK-MEL-28 melanoma and less than 10 nM in the assay with SNB-19 CNS. Besides, the TGI in the assay with A498 renal was 72.5 nM; in the assay with DU-145 prostate, more than 53300 nM; with EKVX NSCLC, more than 55200 nM; in the assay with MCF7 breast it was more than 100000 nM; in the assay on MOLT-4 leukemia it was more than 100000 nM; with NCI-H522 lung it was 14200 nM. For the same compound, the TGI in the assay with OVCAR-4 ovarian was more than 30800 nM; with SK-MEL-28 melanoma it was 7320 nM; with SNB-19 CNS, more than 100000 nM.
`CCCn1cc(/C=N\N=C2\C(=O)Nc3ccc(C)cc32)c2ccccc21`: the GI50 in the assay on A498 renal was 1370 nM; in the assay on DU-145 prostate it was 3880 nM; in the assay on EKVX NSCLC it was 2360 nM; in the assay on MCF7 breast, 1540 nM; in the assay with MOLT-4 leukemia, 682 nM; in the assay on NCI-H522 lung, 1810 nM. Also, the GI50 in the assay with OVCAR-4 ovarian was 935 nM; in the assay on RPMI-8226 leukemia, 1330 nM; in the assay with SK-MEL-28 melanoma, 4700 nM; in the assay on SNB-19 CNS it was 4240 nM. Also, the TGI with A498 renal is 7500 nM; with DU-145 prostate it was 40600 nM; in the assay on EKVX NSCLC, more than 100000 nM; in the assay with MCF7 breast, 15500 nM; in the assay on MOLT-4 leukemia, 4540 nM; in the assay on NCI-H522 lung, 6590 nM. Moreover, the TGI with OVCAR-4 ovarian is 25600 nM; in the assay on RPMI-8226 leukemia it was 3960 nM; in the assay on SK-MEL-28 melanoma, 36900 nM; in the assay on SNB-19 CNS, more than 100000 nM.
In the case of `C=C1C(=O)O[C@H]2C3OC3(C)CC/C=C(/C(=O)OC)[C@@H](OC(C)=O)[C@H](OC(=O)C3(C)OC3C)[C@H]12` (some centres not stated), the GI50 in the assay with A498 renal is 1.69 µM and 2.85 µg/mL; in the assay on EKVX NSCLC it was 5.71 µM and 4.57 µM and 3.81 µg/mL; in the assay on MCF7 breast, 334 nM; in the assay with MOLT-4 leukemia, 216 nM and 0.323 µg/mL; in the assay with NCI-H522 lung, 89.1 nM and 122 nM; in the assay with OVCAR-4 ovarian, 1.88 µM and 2.18 µg/mL. Further, the GI50 in the assay with RPMI-8226 leukemia is 0.329 µg/mL; in the assay with SK-MEL-28 melanoma, 1.06 µM and 1.74 µM and 0.336 µg/mL; in the assay with SNB-19 CNS, 23.1 µg/mL. Moreover, the TGI is 4.26 µM and 5.4 µg/mL with A498 renal; 29000 nM in the assay with DU-145 prostate; 26.8 µM and 9.61 µg/mL with EKVX NSCLC; 7160 nM and 1280 nM in the assay with MCF7 breast; 938 nM and 1.17 µg/mL with MOLT-4 leukemia; 242 nM and 241 nM in the assay on NCI-H522 lung. In addition, the TGI is 3.63 µM and 4.47 µg/mL in the assay on OVCAR-4 ovarian; 1.21 µM and 2.66 µM and 0.941 µg/mL in the assay on RPMI-8226 leukemia; 3.55 µM and 9.53 µM and 0.779 µg/mL in the assay with SK-MEL-28 melanoma; > 7.5 µM and 53.5 µg/mL in the assay with SNB-19 CNS.
Take `CN(C)C[C@@H]1CCn2cc(c3ccccc32)C2=C(C(=O)NC2=O)c2cn(c3ccccc23)CCO1`: the GI50 in the assay with A498 renal was 1130 nM; with DU-145 prostate, 2750 nM; in the assay on EKVX NSCLC, 3920 nM; with MCF7 breast, 1740 nM; in the assay on MOLT-4 leukemia, 1950 nM; in the assay with NCI-H522 lung, 763 nM. For the same compound, the GI50 is 2580 nM in the assay on OVCAR-4 ovarian, 1130 nM in the assay with RPMI-8226 leukemia, 1030 nM in the assay on SK-MEL-28 melanoma and 4490 nM in the assay on SNB-19 CNS. In addition, the TGI is 4540 nM with A498 renal; more than 10000 nM with DU-145 prostate; more than 10000 nM in the assay with EKVX NSCLC; more than 10000 nM with MCF7 breast; 5590 nM in the assay on MOLT-4 leukemia; 7310 nM in the assay with NCI-H522 lung. The TGI in the assay with OVCAR-4 ovarian was more than 10000 nM; in the assay on RPMI-8226 leukemia it was 4020 nM; in the assay on SK-MEL-28 melanoma it was 8130 nM; in the assay with SNB-19 CNS, more than 10000 nM.
`CN(C)c1ccc2cc3c(cc2c1)Oc1ccccc1N3.[Cl][Zn][Cl]`: the GI50 was 16900 nM in the assay with A498 renal; 8240 nM in the assay on DU-145 prostate; 7010 nM with EKVX NSCLC; 1530 nM in the assay on MCF7 breast; 3100 nM with MOLT-4 leukemia; 1940 nM in the assay with NCI-H522 lung. The GI50 in the assay on OVCAR-4 ovarian was 2750 nM; with RPMI-8226 leukemia, 3980 nM; in the assay with SK-MEL-28 melanoma, 2500 nM; in the assay with SNB-19 CNS, 20600 nM. Also, the TGI in the assay on A498 renal came to 34700 nM; in the assay with DU-145 prostate, 20900 nM; in the assay with EKVX NSCLC it was 28500 nM; in the assay with MCF7 breast, 3910 nM; in the assay on MOLT-4 leukemia it was 16200 nM; in the assay on NCI-H522 lung it was 4940 nM. Also, the TGI with OVCAR-4 ovarian stood at 13600 nM; in the assay on RPMI-8226 leukemia it was 31000 nM; in the assay on SK-MEL-28 melanoma it was 7040 nM; in the assay with SNB-19 CNS, 52200 nM.
On to `COc1ccc(Cl)cc1Nc1nc(C(F)(F)F)ccc1C(=O)N/N=C/c1ccccc1Cl`, for which the GI50 in the assay on A498 renal was 3440 nM; in the assay on DU-145 prostate, 3940 nM; in the assay on EKVX NSCLC, 2040 nM; in the assay with MCF7 breast, 1040 nM; in the assay on MOLT-4 leukemia it was 1880 nM; in the assay on NCI-H522 lung, 2740 nM. The GI50 with OVCAR-4 ovarian was 1930 nM; in the assay with RPMI-8226 leukemia it was 2170 nM; in the assay on SK-MEL-28 melanoma it was 4500 nM; in the assay on SNB-19 CNS it was 2340 nM. The TGI is 19500 nM in the assay with A498 renal; more than 25600 nM in the assay on DU-145 prostate; 7220 nM with EKVX NSCLC; 5340 nM in the assay with MCF7 breast; 16000 nM in the assay with NCI-H522 lung; more than 100000 nM in the assay on OVCAR-4 ovarian. Also, the TGI in the assay on RPMI-8226 leukemia was 6810 nM; with SK-MEL-28 melanoma it was more than 100000 nM; in the assay on SNB-19 CNS, more than 55700 nM.
